Measurements from the supplement of paper PMC10307832.

Assays:
Experiment in all cases: relative viability (nuclei count vs DMSO), 5 days (fraction); higher = more cells survive
CX-5461 + OSI-027 = compound: Cc1cnc(CNC(=O)c2c(=O)c3ccc(N4CCCN(C)CC4)nc3n3c2sc2ccccc23)cn1 [CX-5461] + COc1cccc2cc(-c3nc([C@H]4CC[C@H](C(=O)O)CC4)n4ncnc(N)c34)[nH]c12 [OSI-027] (partner 0.5 µM)
Method in brief: (§1)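 Values are medians from duplicate plates. Each reflects relative viability, defined as the nuclei count of treated wells over that of vehicle wells. Lung cancer cell lines in 1536-well plates were pin-tool dosed one day after seeding with one drug alone or with a fixed anchor-drug dose plus five library-drug doses (not always all listed) in √10 steps, then fixed, stained and imaged at 4× after 5 days.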

IMD-0354 + Dasatinib = compound: O=C(Nc1cc(C(F)(F)F)cc(C(F)(F)F)c1)c1cc(Cl)ccc1O [IMD-0354] + Cc1nc(Nc2ncc(C(=O)Nc3c(C)cccc3Cl)s2)cc(N2CCN(CCO)CC2)n1 [Dasatinib] (partner 0.075 µM)
Method in brief: as §1

IMD-0354 + Lapatinib = compound: O=C(Nc1cc(C(F)(F)F)cc(C(F)(F)F)c1)c1cc(Cl)ccc1O [IMD-0354] + CS(=O)(=O)CCNCc1ccc(-c2ccc3ncnc(Nc4ccc(OCc5cccc(F)c5)c(Cl)c4)c3c2)o1 [Lapatinib] (partner 2 µM)
Method in brief: as §1

CX-5461 + Pictilisib = compound: Cc1cnc(CNC(=O)c2c(=O)c3ccc(N4CCCN(C)CC4)nc3n3c2sc2ccccc23)cn1 [CX-5461] + CS(=O)(=O)N1CCN(Cc2cc3nc(-c4cccc5[nH]ncc45)nc(N4CCOCC4)c3s2)CC1 [Pictilisib] (partner 1 µM)
Method in brief: as §1

Cell Line	relative viability (CX-5461 + OSI-027; first compound 0.01 µM)	relative viability (CX-5461 + OSI-027; first compound 0.03162 µM)	relative viability (CX-5461 + OSI-027; first compound 0.1 µM)	relative viability (CX-5461 + OSI-027; first compound 1 µM)	relative viability (IMD-0354 + Dasatinib; first compound 0.04 µM)	relative viability (IMD-0354 + Dasatinib; first compound 0.1265 µM)	relative viability (IMD-0354 + Dasatinib; first compound 0.4 µM)	relative viability (IMD-0354 + Dasatinib; first compound 1.265 µM)	relative viability (IMD-0354 + Dasatinib; first compound 4 µM)	relative viability (IMD-0354 + Lapatinib; first compound 0.04 µM)	relative viability (IMD-0354 + Lapatinib; first compound 0.1265 µM)	relative viability (IMD-0354 + Lapatinib; first compound 0.4 µM)	relative viability (IMD-0354 + Lapatinib; first compound 1.265 µM)	relative viability (IMD-0354 + Lapatinib; first compound 4 µM)	relative viability (CX-5461 + OSI-027; first compound 0.3162 µM)	relative viability (CX-5461 + Pictilisib; first compound 0.01 µM)	relative viability (CX-5461 + Pictilisib; first compound 0.03162 µM)	relative viability (CX-5461 + Pictilisib; first compound 0.1 µM)	relative viability (CX-5461 + Pictilisib; first compound 0.3162 µM)	relative viability (CX-5461 + Pictilisib; first compound 1 µM)
NCI-H522	0.739	0.771	0.77	0.669	0.845	0.904	0.556	0.573	0.404	–	–	–	–	–	–	–	–	–	–	–
HCC-15	0.692	0.71	0.66	0.253	0.613	0.571	0.375	0.094	0.164	0.837	0.824	0.383	0.241	0.127	0.554	0.753	0.933	0.749	0.239	0.495
A-427	0.488	0.534	0.542	0.378	0.813	0.772	0.346	0.112	0.137	1.12	1.02	0.678	0.618	0.105	–	0.78	0.868	0.732	–	0.584
NCI-H2228	0.629	0.428	0.361	0.13	0.538	0.487	0.373	0.184	0.202	1.23	1	0.632	0.306	0.241	0.272	0.646	0.425	0.255	0.432	0.153
NCI-H1734	0.586	0.646	0.706	0.445	0.516	0.4	0.343	0.195	0.134	1.23	1.07	0.493	0.232	0.218	0.499	0.516	0.519	0.503	0.317	0.341
SK-LU-1	0.347	0.321	0.386	0.203	0.173	0.188	0.154	0.139	0.134	1.07	0.851	0.376	0.47	0.27	–	0.659	0.616	0.602	0.573	0.417
PC-14	0.927	1.01	0.85	0.236	0.334	0.186	0.406	0.0692	0.102	0.291	0.384	0.197	0.347	0.109	0.729	0.788	1.05	0.972	0.583	0.636
NCI-H1915	0.664	0.692	0.601	0.605	0.31	0.322	0.129	0.109	0.14	0.869	0.941	0.605	0.761	0.192	0.599	0.966	1.18	1.1	0.326	0.997
NCI-H1666	0.894	0.875	0.664	0.636	0.94	0.912	0.651	0.345	0.351	0.631	0.617	0.452	0.176	0.167	0.756	0.375	0.533	–	0.337	0.349
HCC-366	0.987	1	0.89	0.175	0.681	0.792	0.382	0.221	0.0518	0.91	1.41	0.118	0.0814	0.0302	0.764	0.133	0.142	0.142	0.0964	0.162
LK-2	0.268	0.173	0.185	0.179	0.291	0.288	0.309	0.224	0.22	1.14	0.9	0.545	0.844	0.288	0.162	–	0.623	0.652	–	0.492
NCI-H661	0.654	0.698	0.615	0.387	0.903	1.04	0.533	0.197	0.234	0.466	0.458	0.477	0.538	0.273	0.834	0.372	0.405	0.377	0.374	0.382
PC-3 [JPC-3]	0.828	0.811	0.773	0.707	1.12	0.878	0.761	0.399	0.275	0.484	0.434	0.372	0.42	0.199	0.668	0.82	0.857	0.829	0.697	0.75
NCI-H1623	0.394	0.434	0.481	0.417	0.551	0.52	0.499	0.24	0.348	–	–	–	–	–	0.41	–	–	–	–	–
Calu-6	–	–	–	–	–	–	–	–	–	0.983	1.1	0.6	0.223	0.2	–	1	1.04	0.817	0.845	0.409
LC-2-ad	0.919	0.866	0.705	0.546	0.644	0.486	0.253	0.146	0.126	0.947	0.924	0.354	0.192	0.116	0.718	0.431	0.51	0.516	0.502	0.334
CAL-12T	0.587	0.693	0.389	0.347	0.356	0.387	0.255	0.0944	0.146	0.611	0.665	0.533	0.4	0.259	0.679	0.384	0.386	0.331	0.33	0.449

Cell Line	relative viability (CX-5461 + OSI-027; first compound 0.01 µM)	relative viability (CX-5461 + OSI-027; first compound 0.03162 µM)	relative viability (CX-5461 + OSI-027; first compound 0.1 µM)	relative viability (CX-5461 + OSI-027; first compound 1 µM)	relative viability (IMD-0354 + Dasatinib; first compound 0.04 µM)	relative viability (IMD-0354 + Dasatinib; first compound 0.1265 µM)	relative viability (IMD-0354 + Dasatinib; first compound 0.4 µM)	relative viability (IMD-0354 + Dasatinib; first compound 1.265 µM)	relative viability (IMD-0354 + Dasatinib; first compound 4 µM)	relative viability (IMD-0354 + Lapatinib; first compound 0.04 µM)	relative viability (IMD-0354 + Lapatinib; first compound 0.1265 µM)	relative viability (IMD-0354 + Lapatinib; first compound 0.4 µM)	relative viability (IMD-0354 + Lapatinib; first compound 1.265 µM)	relative viability (IMD-0354 + Lapatinib; first compound 4 µM)	relative viability (CX-5461 + OSI-027; first compound 0.3162 µM)	relative viability (CX-5461 + Pictilisib; first compound 0.01 µM)	relative viability (CX-5461 + Pictilisib; first compound 0.03162 µM)	relative viability (CX-5461 + Pictilisib; first compound 0.1 µM)	relative viability (CX-5461 + Pictilisib; first compound 0.3162 µM)	relative viability (CX-5461 + Pictilisib; first compound 1 µM)
RERF-LC-KJ	0.56	0.628	0.572	0.434	1.08	0.727	0.614	0.208	0.251	0.863	0.981	0.507	0.355	0.265	0.528	0.466	0.601	0.565	0.538	0.5
NCI-H1650	0.678	0.643	0.283	0.182	0.368	0.33	0.183	0.142	0.137	0.864	0.757	0.481	0.211	0.184	0.497	0.577	0.593	–	0.206	0.226
BEN	0.346	0.321	0.286	0.284	0.319	0.315	0.246	0.227	0.165	0.601	0.878	0.373	0.266	0.229	0.281	0.662	0.573	0.6	0.543	0.534
EMC-BAC-2	0.334	0.376	0.338	0.242	0.313	0.313	0.235	0.19	0.218	0.965	0.803	0.555	0.408	0.229	0.322	0.555	0.565	0.562	0.414	0.353
NCI-H1299	–	–	–	–	–	–	–	–	–	0.844	0.964	0.462	0.221	0.185	–	0.842	–	0.768	0.799	0.545
EBC-1	–	–	–	–	–	–	–	–	–	0.163	0.202	0.251	0.168	0.249	–	0.375	0.344	0.331	0.362	0.224
NCI-H2342	0.633	0.599	0.584	0.598	0.329	0.326	0.236	0.312	0.327	–	–	–	–	–	0.642	–	–	–	–	–
ChaGo-K-1	0.578	0.636	0.537	0.315	0.635	0.59	0.434	0.2	0.237	–	–	–	–	–	0.331	0.938	0.658	0.564	0.35	0.395
HCC-44	0.564	0.623	0.6	0.366	–	–	–	–	–	0.976	1.08	0.408	0.23	0.206	0.51	0.584	0.877	0.492	0.644	0.43
A549	–	–	–	–	–	–	–	–	–	1.19	1.04	0.245	0.101	0.105	–	0.555	0.525	–	0.472	0.0627
SW 900	0.423	0.601	0.488	0.271	0.51	0.492	0.462	0.0924	0.18	–	–	–	–	–	0.386	–	–	–	–	–
IA-LM	–	–	–	–	–	–	–	–	–	0.628	0.743	0.412	0.285	0.235	–	0.337	0.327	0.254	0.33	0.207
NCI-H1703	–	–	–	–	–	–	–	–	–	0.936	1.03	0.475	0.202	0.21	–	0.258	0.243	0.239	0.284	0.221
NCI-H441	0.696	0.659	0.607	0.408	0.611	0.583	0.499	0.191	0.229	–	–	–	–	–	0.534	0.376	0.515	0.505	0.382	0.339
LCLC-103H	0.458	0.433	0.434	0.384	0.42	0.487	0.311	0.232	0.201	–	–	–	–	–	0.446	0.588	0.611	0.603	0.483	0.619
NCI-H1648	–	0.256	0.277	0.27	–	–	–	–	–	–	–	–	–	–	0.27	–	–	–	–	–
